Values joined by “and” are separate entries in the source; they are usually repeats but may differ in a detail not shown here. Equal entries are not always repeated.

This note sets out measurements from patent US20260262638A1, “AGRICULTURAL COMPOSITION” (priority 2022, published 2026).

The test system of the series is nematodes. As to the kind of experiment: Nematicide laboratory bioassay in ELISA plates, nematode mortality 24 h after treatment. In kind it is in vivo. As to the method:
Bioassays were designed to determine the efficacy of tested formulations, and included the following steps: • 1. nematode extraction from carrot disks using the mesh extraction method; • 2. counting of extracted nematodes in a sample of 100 μL of water; • 3. preferably, nematode count in such a sample is between 40-80 nematodes; • 4. determining efficacy in ELISA plates; • 5. preparing a stock solution that is 10 times more diluted than the main formulation for all treatments; • 6. for treatments tested at 5% or 1.5%, aliquots of 50 μL or 15 μL of the corresponding stock solution were introduced to a well, respectively. Volume was completed with 50 μL of the nematode extract, except for treatments tested at 1.5%, an additional 35 μL of distilled water was introduced to reach a total volume of 100 μL. Content of the well was sufficiently mixed with a pipette, to ensure proper distribution of both nematodes and treatment components; • 7. performing at least 6 replicates of every treatment. The flask containing the nematode colony was mixed by manual shaking every time before nematodes were introduced to the well. This way we ensure a somewhat homogenous nematode count and avoid nematodes settling at the bottom of the flask; • 8. keeping the whole ELISA plate in dark conditions for 24 hours after introduction of the treatment; and • 9. assessing nematode mortality 24 hours after treatment under stereoscope. Nematodes that were moving were considered alive. Nematodes that were not moving were poked with a fine brush, if they respond to the poking with slight movements, they were considered alive. If not, they were considered dead.
The only validity criterium was that nematode mortality in the negative controls should not exceed 10%.
The raw mortality data was analyzed using RStudio (version 1.4.1717). The data sets were subjected to Shapiro-Wilk test for normality (α=0.05). Data was not normally distributed; therefore, a Kruskal-Wallis test was applied. Where there was significance, a Wilcoxon rank sum t-test was performed for pairwise comparisons between treatment groups.

The mark [1] stands for this setting: mean over replicates, 24 h, tested dose per Table 2.
The mark [2] stands for this setting: sum over replicates, 24 h, tested dose per Table 2.

In the case of `CNC(=O)O/N=C(\SC)C(=O)N(C)C` [Oxamyl], under setting [1], the mean alive turned out to be 20.50 and the mean dead was 22.17. The alive (nematodes counted alive per replicate well, 24 h after treatment, tested dose per Table 2) was 22 and 20 and 25 and 17 and 24 and 18 and 7 and 27 and 5 and 34 and 21 and 26. Further, the Dead (nematodes counted dead per replicate well, 24 h after treatment, tested dose per Table 2 (5%, 1.5% or 1% w/v)) is 24 and 34 and 29 and 20 and 31 and 39 and 15 and 4 and 18 and 5 and 22 and 25. Under setting [2], this molecule yielded a total alive of 246 and a total dead of 266. Moreover, the “Mortality (%) 24 h post exposure” value (tested dose per Table 2 (5%, 1.5% or 1% w/v)) is listed as 50.76%.
